# Test results: article PMC9204756 (2022)
# Experiments:
# [1] = system: FMN riboswitch aptamer (FMN RNA) (RNA, riboswitch) GGGUGUAUCCUUCGGGGCAGGGUGGAAAUCCCGACCGGCGGUAGUAAAGCACAUUUGCUUUAGAGCCCGUGACCCGUGUGCAUAAGCACGCGGUGGAUUCAGUUUAAGCUGAAGCCGACAGUGAAAGUCUGGAUGGGAGAAGGAUGA; assay: photoaffinity labeling, Cy5 click fluorescence; details: covalent, 10 μM probe
# [2] = system: FMN riboswitch aptamer (FMN RNA) (RNA, riboswitch) GGGUGUAUCCUUCGGGGCAGGGUGGAAAUCCCGACCGGCGGUAGUAAAGCACAUUUGCUUUAGAGCCCGUGACCCGUGUGCAUAAGCACGCGGUGGAUUCAGUUUAAGCUGAAGCCGACAGUGAAAGUCUGGAUGGGAGAAGGAUGA; assay: competitive photoaffinity labeling, PAGE; details: displaces probe 1 (10 μM), UV cross-linked, fluorescein-azide click
# [3] = system: FMN riboswitch aptamer (FMN RNA) (RNA, riboswitch) GGGUGUAUCCUUCGGGGCAGGGUGGAAAUCCCGACCGGCGGUAGUAAAGCACAUUUGCUUUAGAGCCCGUGACCCGUGUGCAUAAGCACGCGGUGGAUUCAGUUUAAGCUGAAGCCGACAGUGAAAGUCUGGAUGGGAGAAGGAUGA; assay: competitive photoaffinity labeling, microplate reader fluorescence; details: displaces probe 1
# [4] = system: FMN RT RNA (FMN riboswitch in structure cassette) (RNA, riboswitch) GGGCCUUCGGGCCAAUGUAUCCUUCGGGGCAGGGUGGAAAUCCCGACCGGCGGUAGUAAAGCACAUUUGCUUUAGAGCCCGUGACCCGUGUGCAUAAGCACGCGGUGGAUUCAGUUUAAGCUGAAGCCGACAGUGAAAGUCUGGAUGGGAGAAGGAUGAUCGAUCCGGUUCGCCGGAUCCAAAUCGGGCUUCGGUCCGGUUC; assay: SHAPE (NAI); details: 15 mM MgCl2, 100 mM KCl; 50 mM HEPES pH 8.0, 37 °C; 100 μM compound
# [5] = system: FMN riboswitch aptamer (FMN RNA) (RNA, riboswitch) GGGUGUAUCCUUCGGGGCAGGGUGGAAAUCCCGACCGGCGGUAGUAAAGCACAUUUGCUUUAGAGCCCGUGACCCGUGUGCAUAAGCACGCGGUGGAUUCAGUUUAAGCUGAAGCCGACAGUGAAAGUCUGGAUGGGAGAAGGAUGA; assay: photoaffinity labeling, Cy5 click fluorescence and PAGE; details: covalent; 10 μM probe; competed out by 10 μM FMN
# [6] = system: FMN RT RNA (FMN riboswitch in structure cassette) (RNA, riboswitch) GGGCCUUCGGGCCAAUGUAUCCUUCGGGGCAGGGUGGAAAUCCCGACCGGCGGUAGUAAAGCACAUUUGCUUUAGAGCCCGUGACCCGUGUGCAUAAGCACGCGGUGGAUUCAGUUUAAGCUGAAGCCGACAGUGAAAGUCUGGAUGGGAGAAGGAUGAUCGAUCCGGUUCGCCGGAUCCAAAUCGGGCUUCGGUCCGGUUC; assay: reverse transcription termination after photo-cross-linking; details: covalent; folding buffer, 37 °C; 10 μM probe, 2 μM RNA; stops competed by FMN
structure (smiles),measurement,setting,value
C#CC[C@@H](C(=O)NCCc1ccc(C(=O)c2ccccc2)cc1)N(CCCC(=O)O)CCn1c2nc(=O)[nH]c(=O)c-2nc2cc(C)c(C)cc21,binding,[1]; low click efficiency not excluded,weak
Cc1cc2nc3c(=O)[nH]c(=O)nc-3n(C[C@H](O)[C@H](O)[C@H](O)CO)c2cc1N(C)C,apparent IC50,[2],7000 ± 180 nM
C#CC[C@@H](C(=O)NCCc1ccc(N=[N+]=[N-])cc1)N(CCCC(=O)O)CCn1c2nc(=O)[nH]c(=O)c-2nc2cc(C)c(C)cc21,binding,[1],yes
Cc1cc2nc3c(=O)[nH]c(=O)nc-3n(C[C@H](O)[C@H](O)[C@H](O)COP(=O)(O)O)c2cc1C,apparent IC50,[3],400 ± 10 nM
same,apparent IC50,[2],400 ± 10 nM
same,binding,[4],yes
C#CC[C@@H](C(=O)NCCC1(C)N=N1)N(CCCC(=O)O)CCn1c2nc(=O)[nH]c(=O)c-2nc2cc(C)c(C)cc21,binding,[5],yes
same,binding,[4],yes
same,binding,[6],yes
